Results: PubChem BioAssay (NCI)
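Assay format: 96-well plates, 48-hour exposure. TGI: concentration producing complete growth inhibition.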

Experiments:
Experiment in all cases: growth of human tumour cells (NCI), 48 h
HT29 colon = system: HT29 colon
PC-3 prostate = system: PC-3 prostate
A549 NSCLC = system: A549 NSCLC
U251 CNS = system: U251 CNS
CCRF-CEM leukemia = system: CCRF-CEM leukemia
ACHN renal = system: ACHN renal
COLO 205 colon = system: COLO 205 colon
NCI-H226 lung = system: NCI-H226 lung
OVCAR-3 ovarian = system: OVCAR-3 ovarian
SN12C renal = system: SN12C renal
HL-60(TB) leukemia = system: HL-60(TB) leukemia
786-0 renal = system: 786-0 renal
OVCAR-5 ovarian = system: OVCAR-5 ovarian
SF-268 CNS = system: SF-268 CNS
OVCAR-4 ovarian = system: OVCAR-4 ovarian
T-47D breast = system: T-47D breast
MCF7 breast = system: MCF7 breast
MDA-MB-435 = system: MDA-MB-435
HCT-15 colon = system: HCT-15 colon
SK-MEL-2 melanoma = system: SK-MEL-2 melanoma
OVCAR-8 ovarian = system: OVCAR-8 ovarian
MDA-N = system: MDA-N
A498 renal = system: A498 renal
SR leukemia = system: SR leukemia
SNB-75 CNS = system: SNB-75 CNS
UACC-62 melanoma = system: UACC-62 melanoma
LOX IMVI melanoma = system: LOX IMVI melanoma
NCI-H23 lung = system: NCI-H23 lung
SNB-19 CNS = system: SNB-19 CNS
SK-MEL-5 melanoma = system: SK-MEL-5 melanoma
IGROV1 ovarian = system: IGROV1 ovarian
SW-620 colon = system: SW-620 colon
BT-549 breast = system: BT-549 breast
KM12 colon = system: KM12 colon
SF-539 CNS = system: SF-539 CNS
MALME-3M melanoma = system: MALME-3M melanoma
MDA-MB-231 breast = system: MDA-MB-231 breast
DU-145 prostate = system: DU-145 prostate
SF-295 CNS = system: SF-295 CNS
RPMI-8226 leukemia = system: RPMI-8226 leukemia
RXF 393 renal = system: RXF 393 renal
UACC-257 melanoma = system: UACC-257 melanoma
NCI-H522 lung = system: NCI-H522 lung
UO-31 renal = system: UO-31 renal
CAKI-1 renal = system: CAKI-1 renal
NCI/ADR-RES ovarian = system: NCI/ADR-RES ovarian
HOP-92 NSCLC = system: HOP-92 NSCLC
SK-OV-3 ovarian = system: SK-OV-3 ovarian
TK-10 renal = system: TK-10 renal
HS 578T breast = system: HS 578T breast
NCI-H460 lung = system: NCI-H460 lung
K-562 leukemia = system: K-562 leukemia
HOP-62 NSCLC = system: HOP-62 NSCLC
HCT-116 colon = system: HCT-116 colon
MOLT-4 leukemia = system: MOLT-4 leukemia
M14 melanoma = system: M14 melanoma
SK-MEL-28 melanoma = system: SK-MEL-28 melanoma
EKVX NSCLC = system: EKVX NSCLC

For `CN1CCN(CC(=O)N2c3ccccc3Sc3cc4ccccc4cc32)CC1`, the TGI (HT29 colon) was 16.4 µM, the TGI (PC-3 prostate) was 27.6 µM and the TGI (A549 NSCLC) was 30.3 µM. For the same compound, the TGI (U251 CNS) was 28.7 µM, the TGI (CCRF-CEM leukemia) was 83.6 µM and the TGI (ACHN renal) was 30.3 µM. The TGI (COLO 205 colon) was 36.2 µM, the TGI (NCI-H226 lung) was 42.8 µM and the TGI (OVCAR-3 ovarian) was 26.1 µM. It also gave a TGI (SN12C renal) of 25.2 µM, a TGI (HL-60(TB) leukemia) of 4.55 µM and a TGI (786-0 renal) of 26.8 µM. The TGI (OVCAR-5 ovarian) was 29.8 µM, the TGI (SF-268 CNS) was 25.6 µM and the TGI (OVCAR-4 ovarian) was 29.1 µM. The TGI (T-47D breast) was 46.1 µM, the TGI (MCF7 breast) was 31.6 µM and the TGI (MDA-MB-435) was 23.7 µM. For the same compound, the TGI (HCT-15 colon) was 34.7 µM, the TGI (SK-MEL-2 melanoma) was 31.9 µM and the TGI (OVCAR-8 ovarian) was 36.5 µM. It also gave a TGI (MDA-N) of 22.4 µM, a TGI (A498 renal) of 27.9 µM and a TGI (SR leukemia) of 31.2 µM. For the same compound, the TGI (SNB-75 CNS) was 27.8 µM, the TGI (UACC-62 melanoma) was 31.6 µM and the TGI (LOX IMVI melanoma) was 33.4 µM. For the same compound, the TGI (NCI-H23 lung) was 40.1 µM, the TGI (SNB-19 CNS) was 35.3 µM and the TGI (SK-MEL-5 melanoma) was 34.7 µM. The TGI (IGROV1 ovarian) was 32.8 µM, the TGI (SW-620 colon) was 50.9 µM and the TGI (BT-549 breast) was 30.2 µM. The TGI (KM12 colon) was 31.8 µM, the TGI (SF-539 CNS) was 30.9 µM and the TGI (MALME-3M melanoma) was 28.4 µM. The TGI (MDA-MB-231 breast) was 27.7 µM, the TGI (DU-145 prostate) was 29.3 µM and the TGI (SF-295 CNS) was 28.3 µM. It also gave a TGI (RPMI-8226 leukemia) of 34.1 µM, a TGI (RXF 393 renal) of 27 µM and a TGI (UACC-257 melanoma) of 24.5 µM. For the same compound, the TGI (NCI-H522 lung) was 31.9 µM, the TGI (UO-31 renal) was 26.7 µM and the TGI (CAKI-1 renal) was 26 µM. The TGI (NCI/ADR-RES ovarian) was 34.4 µM, the TGI (HOP-92 NSCLC) was 24.6 µM and the TGI (SK-OV-3 ovarian) was 30.3 µM. It also gave a TGI (TK-10 renal) of 29.5 µM, a TGI (HS 578T breast) of 28.3 µM and a TGI (NCI-H460 lung) of 32.8 µM. It also gave a TGI (K-562 leukemia) of 33.6 µM, a TGI (HOP-62 NSCLC) of 33 µM and a TGI (HCT-116 colon) of 22.2 µM. The TGI (MOLT-4 leukemia) was 28.4 µM, the TGI (M14 melanoma) was 29 µM and the TGI (SK-MEL-28 melanoma) was 28.9 µM. For the same compound, the TGI (EKVX NSCLC) was 25.5 µM.
In the case of `OCCCNCc1ccncc1`, the TGI (HT29 colon) is reported as greater than 100 µM, the TGI (PC-3 prostate) is reported as greater than 100 µM and the TGI (A549 NSCLC) is reported as greater than 100 µM. It also gave a TGI (U251 CNS) greater than 100 µM, a TGI (CCRF-CEM leukemia) greater than 100 µM and a TGI (ACHN renal) greater than 100 µM. It also gave a TGI (COLO 205 colon) greater than 100 µM, a TGI (NCI-H226 lung) greater than 100 µM and a TGI (OVCAR-3 ovarian) greater than 100 µM. The TGI (SN12C renal) was greater than 100 µM, the TGI (HL-60(TB) leukemia) was greater than 100 µM and the TGI (786-0 renal) was greater than 100 µM. For the same compound, the TGI (OVCAR-5 ovarian) was greater than 100 µM, the TGI (SF-268 CNS) was greater than 100 µM and the TGI (OVCAR-4 ovarian) was greater than 100 µM. It also gave a TGI (T-47D breast) greater than 100 µM, a TGI (MCF7 breast) greater than 100 µM and a TGI (MDA-MB-435) greater than 100 µM. For the same compound, the TGI (HCT-15 colon) was greater than 100 µM, the TGI (SK-MEL-2 melanoma) was greater than 100 µM and the TGI (OVCAR-8 ovarian) was greater than 100 µM. It also gave a TGI (MDA-N) greater than 100 µM, a TGI (A498 renal) greater than 100 µM and a TGI (SR leukemia) greater than 100 µM. For the same compound, the TGI (SNB-75 CNS) was greater than 100 µM, the TGI (UACC-62 melanoma) was greater than 100 µM and the TGI (LOX IMVI melanoma) was greater than 100 µM. For the same compound, the TGI (NCI-H23 lung) was greater than 100 µM, the TGI (SNB-19 CNS) was greater than 100 µM and the TGI (SK-MEL-5 melanoma) was greater than 100 µM. The TGI (IGROV1 ovarian) was greater than 100 µM, the TGI (SW-620 colon) was greater than 100 µM and the TGI (BT-549 breast) was greater than 100 µM. The TGI (KM12 colon) was greater than 100 µM, the TGI (SF-539 CNS) was greater than 100 µM and the TGI (MALME-3M melanoma) was greater than 100 µM. It also gave a TGI (MDA-MB-231 breast) greater than 100 µM, a TGI (DU-145 prostate) greater than 100 µM and a TGI (SF-295 CNS) greater than 100 µM. It also gave a TGI (RPMI-8226 leukemia) greater than 100 µM, a TGI (RXF 393 renal) greater than 100 µM and a TGI (NCI-H522 lung) greater than 100 µM. For the same compound, the TGI (UO-31 renal) was greater than 100 µM, the TGI (CAKI-1 renal) was greater than 100 µM and the TGI (NCI/ADR-RES ovarian) was greater than 100 µM. For the same compound, the TGI (HOP-92 NSCLC) was greater than 100 µM, the TGI (SK-OV-3 ovarian) was greater than 100 µM and the TGI (TK-10 renal) was greater than 100 µM. The TGI (HS 578T breast) was greater than 100 µM, the TGI (NCI-H460 lung) was greater than 100 µM and the TGI (K-562 leukemia) was greater than 100 µM. It also gave a TGI (HOP-62 NSCLC) greater than 100 µM, a TGI (HCT-116 colon) greater than 100 µM and a TGI (MOLT-4 leukemia) greater than 100 µM. The TGI (M14 melanoma) was greater than 100 µM, the TGI (SK-MEL-28 melanoma) was greater than 100 µM and the TGI (EKVX NSCLC) was greater than 100 µM.
`c1ccc2c(CC3NCCN3)cccc2c1` gave a TGI (HT29 colon) greater than 100 µM, a TGI (PC-3 prostate) greater than 100 µM and a TGI (A549 NSCLC) greater than 100 µM. It also gave a TGI (U251 CNS) greater than 100 µM, a TGI (CCRF-CEM leukemia) greater than 100 µM and a TGI (ACHN renal) greater than 100 µM. The TGI (COLO 205 colon) was greater than 100 µM, the TGI (NCI-H226 lung) was greater than 100 µM and the TGI (OVCAR-3 ovarian) was greater than 100 µM. The TGI (SN12C renal) was greater than 100 µM, the TGI (HL-60(TB) leukemia) was greater than 100 µM and the TGI (786-0 renal) was greater than 100 µM. It also gave a TGI (OVCAR-5 ovarian) greater than 100 µM, a TGI (SF-268 CNS) greater than 100 µM and a TGI (OVCAR-4 ovarian) greater than 100 µM. For the same compound, the TGI (T-47D breast) was greater than 100 µM, the TGI (MCF7 breast) was greater than 100 µM and the TGI (MDA-MB-435) was greater than 100 µM. The TGI (HCT-15 colon) was greater than 100 µM, the TGI (SK-MEL-2 melanoma) was greater than 100 µM and the TGI (OVCAR-8 ovarian) was greater than 100 µM. For the same compound, the TGI (MDA-N) was greater than 100 µM, the TGI (A498 renal) was greater than 100 µM and the TGI (SR leukemia) was greater than 100 µM. It also gave a TGI (SNB-75 CNS) greater than 100 µM, a TGI (UACC-62 melanoma) greater than 100 µM and a TGI (LOX IMVI melanoma) greater than 100 µM. The TGI (NCI-H23 lung) was greater than 100 µM, the TGI (SNB-19 CNS) was greater than 100 µM and the TGI (SK-MEL-5 melanoma) was greater than 100 µM. It also gave a TGI (IGROV1 ovarian) greater than 100 µM, a TGI (SW-620 colon) greater than 100 µM and a TGI (BT-549 breast) greater than 100 µM. The TGI (KM12 colon) was greater than 100 µM, the TGI (SF-539 CNS) was greater than 100 µM and the TGI (MALME-3M melanoma) was greater than 100 µM. For the same compound, the TGI (MDA-MB-231 breast) was greater than 100 µM, the TGI (DU-145 prostate) was greater than 100 µM and the TGI (SF-295 CNS) was greater than 100 µM. It also gave a TGI (RPMI-8226 leukemia) greater than 100 µM, a TGI (RXF 393 renal) greater than 100 µM and a TGI (UACC-257 melanoma) greater than 100 µM. For the same compound, the TGI (NCI-H522 lung) was greater than 100 µM, the TGI (CAKI-1 renal) was greater than 100 µM and the TGI (NCI/ADR-RES ovarian) was greater than 100 µM. For the same compound, the TGI (HOP-92 NSCLC) was greater than 100 µM, the TGI (SK-OV-3 ovarian) was greater than 100 µM and the TGI (TK-10 renal) was greater than 100 µM. The TGI (HS 578T breast) was greater than 100 µM, the TGI (NCI-H460 lung) was greater than 100 µM and the TGI (K-562 leukemia) was greater than 100 µM. The TGI (HOP-62 NSCLC) was greater than 100 µM, the TGI (HCT-116 colon) was greater than 100 µM and the TGI (MOLT-4 leukemia) was greater than 100 µM. It also gave a TGI (M14 melanoma) greater than 100 µM, a TGI (SK-MEL-28 melanoma) greater than 100 µM and a TGI (EKVX NSCLC) greater than 100 µM.
